This is an account of results in US12492212B2, “Substituted pyrazolecarboxamides as sting activators” (Shanghai Institute of Materia Medica, Chinese Academy of …, priority 2019, dated 2025).

Assay [1] has as its target T1, STING (Homo sapiens, UniProt Q86WV6, G230A/H232R/R293Q/R71H).
T1 construct: THP1-Dual cells in the experiment were purchased from InvivoGen company; host or cells: THP1-Dual cells
In words: Type I interferon pathway (ISG) luciferase reporter in human THP1-Dual cells. Type of assay: cell-based. The note with it: test concentration 10 μM, 24 hours, ratio of LUM of compound to LUM of blank control. On the procedure:
In this experiment, the ability of compounds to activate STING was evaluated by detecting the ability of compounds to stimulate the production of IFN-β in human peripheral blood mononuclear cell line THP1-Dual cells. THP1-Dual cells in the experiment were purchased from InvivoGen company. […] THP1-Dual cells were counted, cell concentration was adjusted to be 1×10^6/ml, and 180 μl of cells was added to each well for incubation. […] In addition, the blank group was added with 200 μl of culture solution. After 24 hours, 20 μl of culture solution was took from each well to a new bottom transparent 96-well plate, and 50 μl luciferase detection reagent QUANTI-Luc™ was added, the fluorescence value was immediately determined. […] The data were described by the ratio of the LUM of compound to the LUM of blank control.
Background: A reporter such as luciferase makes a cellular process visible.

Assay [2] deals with T2, STING (Homo sapiens, UniProt Q86WV6).
T2 construct: host or cells: human PBMCs
T2 sequence (Q86WV6 whole entry H232R): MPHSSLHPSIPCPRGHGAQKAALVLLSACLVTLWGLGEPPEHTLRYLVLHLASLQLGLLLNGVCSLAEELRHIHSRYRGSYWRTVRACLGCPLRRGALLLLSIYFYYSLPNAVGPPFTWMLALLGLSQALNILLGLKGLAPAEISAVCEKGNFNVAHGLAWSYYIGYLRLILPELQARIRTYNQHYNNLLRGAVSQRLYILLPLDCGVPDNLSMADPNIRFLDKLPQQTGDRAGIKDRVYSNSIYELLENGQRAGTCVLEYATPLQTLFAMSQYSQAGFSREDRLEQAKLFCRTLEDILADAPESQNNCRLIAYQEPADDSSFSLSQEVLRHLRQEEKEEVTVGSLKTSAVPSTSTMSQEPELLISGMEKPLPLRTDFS
In words: IFN β release from human PBMC cells stimulated by compound (ELISA). Type of assay: cell-based. The note with it: LPS 10 ng/ml, cultured overnight. As for the experimental part:
Example 23: Activation Effect of Compound on Type I Interferon Pathway (ISG) Produced by Human Peripheral Blood Mononuclear Cell Line PBMC Cells
In this experiment, the function of STING agonist was evaluated by detecting the changes of type I interferon IFN β produced by compound stimulating human peripheral blood mononuclear cell line PBMC cells (AllCells, Cat #: PB005F). Before use, cryopreserved PBMCs were thawed in RPMI1640 medium and resuscitated overnight. The test compound was dissolved into DMSO and formulated as a mother liquor with a concentration of 10 mM. Before testing, the compound was diluted to 100 times of the working concentration (the working concentration was 30, 10, 3.33, 1.11, 0.370, 0.123, 0.0412, 0.0137 uM, respectively). PBMCs were collected and adjusted to a cell concentration of 5×10^5/ml. LPS was added to PBMCs at a final concentration of 10 ng/ml. In the 96-well cell culture plate, 200 ul PBMCs (1×10^5 cells per well) were added to each well. Then 2 ul diluted compound per well (duplicate wells, the final concentration of DMSO in each well was 1%) was added. Then a pipette was used to carefully mix the cells and the compound evenly. 2 ul DMSO (1% of final concentration) was added to the negative control. The cells were cultured overnight in an incubator at 37° C. The cell culture supernatant was collected to detect the concentration of type I interferon IFN β. The concentration of IFNβ was determined by ELISA kit of solid-phase antibody R&D-MAB8144-100 and detecting antibody R&D-MAB8143-100 (Biotinylated), converted into […] concentration according to standard curve, and EC50 value was calculated by GraphPad 5.0 fitting calibration curve.
For orientation: An ELISA detects its analyte on a solid surface through an enzyme-linked reagent.

A further assay relates to EMT6 breast cancer. In words: EMT6 breast cancer orthotopic transplantation tumor model. Type of assay: in vivo, Balb/C female mice. Particulars: EMT6, Balb/C mice, 1 mg/kg, 1st, 4th and 9th days after grouping, vs negative control, FIG. 2. As for the experimental part:
Example 26: The Efficacy Study of the Compound of the Present Invention in the EMT6 Breast Cancer Orthotopic Transplantation Tumor Model
In this experiment, 4-6 weeks old Balb/C female mice were used, and EMT6 cells (2.5*10^5) were injected subcutaneously into axils of each mouse. The tumor growth of mice was observed. Grouping was started when the tumor volume was 50-100 mm^3. The compound 19 of the present invention and the negative control were administrated on 1st, 4th and 9th days after grouping. The dosage of compound 19 of the present invention was 1 mg/kg. The experimental results were evaluated in the form of tumor volume growth curves, and the experimental results were shown in FIG. 2.

The next assay deals with CT26 colon cancer. The assay can be described thus: CT26 colon cancer subcutaneous transplantation tumor model. Type of assay: in vivo, Balb/C female mice. Particulars: CT26, Balb/C mice, 0.1 mg/kg and 0.3 mg/kg, 1st, 4th and 7th days after grouping, vs negative control, FIG. 1. As for the experimental part:
Example 25: The Efficacy Study of the Compound of the Present Invention in the CT26 Colon Cancer Subcutaneous Transplantation Tumor Model
In this experiment, 4-6 weeks old Balb/C female mice were used, and CT26 cells (2.5*10^5) were injected subcutaneously into axils of each mouse. The tumor growth of mice was observed. Grouping was started when the tumor volume was 50-100 mm^3. The compound 19 of the present invention and the negative control were administrated. The compound 19 of the present invention and the negative control were administrated on 1st, 4th and 7th days after grouping. The dosage of the compound 19 in each group was 0.1 mg/kg and 0.3 mg/kg respectively. The experimental results were evaluated in the form of tumor volume growth curves, and the experimental results were shown in FIG. 1.

pEC50: −log10 of the molar value.

T1 sequence (Q86WV6 whole entry R71H/G230A/H232R/R293Q): as the sequence (Q86WV6 whole entry H232R) above, with R71H, G230A, R293Q counted along it

On to `Cc1cc(C(=O)Nc2nc3cc(C(N)=O)cc(OCCCN4CCOCC4)c3n2C/C=C/Cn2c(NC(=O)c3cc(C)nn3CC(F)(F)F)nc3cc(C(N)=O)c4oc(C)cc4c32)n(CC(F)(F)F)n1` [Example 20], for which the “Fold change (Ratio to control)” value at STING [1] was 159.71.
On the same count and under the same terms, the same measure for `C#CCn1nc(C)cc1C(=O)Nc1nc2cc(C(N)=O)cc(OCCCO)c2n1C/C=C/Cn1c(NC(=O)c2cc(C)nn2CC#C)nc2cc(C(N)=O)c3oc(C)cc3c21` [Example 10]: 13.14; for `C=CCn1nc(C)cc1C(=O)Nc1nc2cc(C(N)=O)cc(OC3COC3)c2n1C/C=C/Cn1c(NC(=O)c2cc(C)nn2CC=C)nc2cc(C(N)=O)c3oc(C)cc3c21` [Example 18]: 175.49; for `COc1cc(C(N)=O)cc2nc(NC(=O)c3cc(C)nn3CC(F)(F)F)n(C/C=C/Cn3c(NC(=O)c4cc(C)nn4CC(F)(F)F)nc4cc(C(N)=O)c5oc(C)cc5c43)c12` [Example 6]: 86.31.
Turning to `CCn1nc(C)cc1C(=O)Nc1nc2cc(C(N)=O)cc(OC)c2n1CCCCn1c(NC(=O)c2cc(C)nn2CC)nc2cc(C(N)=O)c3oc(C)cc3c21` [Example 2], the “Fold change (Ratio to control)” value on STING [1] was 53.15. Further, the pEC50 at STING [2] was 6.99.
As to `CCn1nc(C)cc1C(=O)Nc1nc2cc(C(N)=O)cc(OC)c2n1C/C=C/Cn1c(NC(=O)c2cc(C)nn2CC)nc2cc(C(N)=O)cc(OCCCN3CCOCC3)c21` [GSK compound 3, reference compound], the “Fold change (Ratio to control)” value at STING [1] came to 70.83.
Same read-out and setting: the same measure for `CCn1nc(C)cc1C(=O)Nc1nc2cc(C(N)=O)ccc2n1C/C=C/Cn1c(NC(=O)c2cc(C)nn2CC)nc2cc(C(N)=O)cc(OCCCO)c21` [GSK compound 1, reference compound]: 80.54.
Same read-out and setting: the same measure for `C=CCn1nc(C)cc1C(=O)Nc1nc2cc(C(N)=O)cc(OCCCO)c2n1C/C=C/Cn1c(NC(=O)c2cc(C)nn2CC=C)nc2cc(C(N)=O)c3oc(C)cc3c21` [Example 9]: 148.64.
In the case of `CCn1nc(C)cc1C(=O)Nc1nc2cc(C(N)=O)cc(OCCCN3CCOCC3)c2n1C/C=C/Cn1c(NC(=O)c2cc(C)nn2CC)nc2cc(C(N)=O)c3oc(C)cc3c21` [Example 19], the “Fold change (Ratio to control)” value on STING [1] is reported as 90.48. The “anti-tumor effect (tumor volume growth curves)” value in the assay with EMT6 breast cancer and in the assay on CT26 colon cancer was “significant anti-tumor effect” throughout.
Consider `COc1cc(C(N)=O)cc2nc(NC(=O)c3cc(C)nn3CC3CC3)n(C/C=C/Cn3c(NC(=O)c4cc(C)nn4CC4CC4)nc4cc(C(N)=O)c5oc(C)cc5c43)c12` [Example 5], for which the “Fold change (Ratio to control)” value on STING [1] was 66.65.
Consider `CCn1nc(C)cc1C(=O)Nc1nc2cc(C(N)=O)cc(OC)c2n1C/C=C/Cn1c(NC(=O)c2cc(C)nn2CC)nc2cc(C(N)=O)c3oc(C)cc3c21` [Example 3, (E)-1-(4-(5-carbamoyl-2-(1-ethyl-3-methyl-1H-pyrazol-5-formamido)-7-methoxy-1H-benzo[d]imidazol-1-yl)but-2-en-1-yl)-2-(1-ethyl-3-methyl-1H-pyrazol-5-formamido)-7-methyl-1H-benzofuran[4,5-d]imidazol-5-formamide], for which the “Fold change (Ratio to control)” value on STING [1] came out at 62.82. The same molecule had a negative logarithm of the EC50 (pEC50) at STING [2] of 8.31.
Molecule `CCn1nc(C)cc1C(=O)Nc1nc2cc(C(N)=O)cc(OC)c2n1CCCCn1c(NC(=O)c2cc(C)nn2CC)nc2cc(C(N)=O)c3c(c21)CC(C)(C)O3` [Example 1, 1-(4-(5-carbamoyl-2-(1-ethyl-3-methyl-1H-pyrazol-5-formamido)-7-methoxy-1H-benzo[d]imidazol-1-yl)butyl)-2-(1-ethyl-3-methyl-1H-pyrazol-5-formamido)-7,7-dimethyl-7,8-dihydro-1H-benzofuran[4,5-d]imidazol-5-formamide] gave a negative-log EC50 (pEC50) at STING [2] of 6.44.

As usually defined, the pEC50 is the EC50 on a negative log10 scale, so that one unit is a factor of ten. Read a high pEC50 as a small EC50.
